Values quoted from earlier work as cited in patent US9327003B2, “Use of foti to enhance stem cell mobilization and proliferation” (Stemtech International, Inc., priority 2011, dated 2016).

B1: G-CSF: granulocyte colony-stimulating factor or recombinant forms thereof (protein, UniProt P09919 31-207, looked up)
Granulocyte …: TPLGPASSLPQSFLLKCLEQVRKIQGDGAALQEKLVSECATYKLCHPEELVLLGHSLGIPWAPLSSCPSQALQLAGCLSQLHSGLFLYQGLLQALEGISPELGPTLDTLQLDVADFATTIWQQMEELGMAPALQPTQGAMPAFASAFQRRAGGVLVASHLQSFLEVSYRVLRHLAQP

Legend:
circulating HSC = conditions: injection / administration
[1] = including hemorrhaging, rupturing of the spleen, bloody sputum, bone disorders

Molecule | time course of elevating circulating HSC numbers (circulating HSC) | side effects [1] | further results
G-CSF: granulocyte colony-stimulating factor or recombinant forms thereof | requires days to achieve peak circulating HSC numbers |  | 
IL-8: interleukin-8 | acts only within minutes and has a short-lived effect |  | 
c1cc(CN2CCCNCCNCCCNCC2)ccc1CN1CCCNCCNCCCNCC1 [AMD3100, reference compound] |  | significant side effects | 
OC[C@H]1O[C@@H](Oc2c(O)cc(O)cc2C=Cc2ccc(O)cc2)[C@H](O)[C@@H](O)[C@@H]1O [2,3,5,4′-tetrahydroxystilbene-2-O-β-d-glycoside] |  |  | stability in aqueous solutions: readily degrade in aqueous solutions in a temperature and pH dependent manner
B1 |  | significant side effects | 
